Key:
LspA from E. coli = system: LspA from E. coli; set-up: method as in earlier work; details: ref 7 (supplementary references); cited from earlier work
LspMrs N52Q = target: T1, LspMrs N52Q (Staphylococcus aureus, UniProt Q6GHN9, N52Q); test: Gel-shift peptidase assay, LspMrs N52Q mutant; format: biochemical, methicillin-resistant Staphylococcus aureus
T1 construct: MGSS-hexahistidine-SSGR-TEV site (ENLYFQ) (N, cleaved yes); made in house; host or cells: E. coli C43 (DE3)
Method: (§1) LspA mutant genes (N52A, N52Q, G54A, G54P, R110A, R110K, D118N, N133A, N133Q and D136N) were obtained by site-directed mutagenesis of the wild-type lspA construct in pETDuet. Mutagenesis was performed using the Q5® Site-Directed Mutagenesis Kit (New England Biolabs) and specific primers are listed in Supplementary Table 5. The correct mutations were confirmed by sequencing (Eurofins Genomics). Expression and purification of all LspMrs wild-type and mutants for enzyme assays were performed as described above with the following modifications: TALON® Metal Affinity Resin (Clontech) was used for IMAC purification and the detergent DDM was used for membrane solubilisation and protein purification.
(§2) The peptidase activity of LspMrs and P. aeruginosa LspA (LspPae) was quantified in a coupled gel-shift assay developed previously for LspPae[5]. The P. aeruginosa lipoprotein pre-proICP and the first two enzymes in the bacterial lipoprotein processing pathway Lgt and LspA were expressed and purified, as described. For FRET assays LspMrs was expressed and purified as described above and LspPae was expressed and purified as described in a published protocol.
(§3) Gel-shift activity assay. […] Band intensities of ICP were quantified using Image Lab. […]

LspMrs G54A = target: T2, LspMrs G54A (Staphylococcus aureus, UniProt Q6GHN9, G54A); test: Gel-shift peptidase assay, LspMrs G54A mutant; format: biochemical, methicillin-resistant Staphylococcus aureus
T2 construct: MGSS-hexahistidine-SSGR-TEV site (ENLYFQ) (N, cleaved yes); made in house; host or cells: E. coli C43 (DE3)
Method: as §1, §2, §3

LspMrs N52A = target: T3, LspMrs N52A (Staphylococcus aureus, UniProt Q6GHN9, N52A); test: Gel-shift peptidase assay, LspMrs N52A mutant; format: biochemical, methicillin-resistant Staphylococcus aureus
T3 construct: MGSS-hexahistidine-SSGR-TEV site (ENLYFQ) (N, cleaved yes); made in house; host or cells: E. coli C43 (DE3)
Method: as §1, §2, §3

[1] = target: T4, LspMrs (lipoprotein signal peptidase II from methicillin-resistant Staphylococcus aureus) (Staphylococcus aureus, UniProt Q6GHN9); test: Coupled gel-shift peptidase assay with proICP substrate, LspMrs WT; format: biochemical; details: proICP substrate (12 µM pre-proICP), 0.5 µM enzyme, 30 min
T4 construct: MGSS-hexahistidine-SSGR-TEV site (ENLYFQ) (N, cleaved yes); made in house; host or cells: E. coli C43 (DE3)
Source text: as §2
Gel-shift activity assay. For time course assays, reactions were set up containing 12 µM pre-proICP, 250 µM DOPG (Avanti Polar Lipids, Inc.) and 1.2 µM Lgt in Buffer E (50 mM Tris/HCl pH 7.5, 150 mM NaCl, 1 mM DTT, 0.02%(w/v) LMNG). The assay mixtures were incubated at 37 °C and 200 rpm for 60 min to allow Lgt catalysed conversion of pre-proICP to the LspA substrate proICP. The LspA reaction was initiated by adding 0.5 µM LspA directly to the assay mixture. At timed intervals, 20 µL samples were removed and the reaction was stopped by adding 10 µL of 4x SDS loading buffer (62.5 mM Tris/HCl pH 6.8, 2.5%(w/v) SDS, 0.002%(w/v) bromophenol blue, 0.5 M β-mercaptoethanol, 10%(v/v) glycerol). To compare the activity of wild-type and mutant LspMrs, assays were allowed to proceed for 30 min before being stopped with SDS loading buffer. […] Band intensities of ICP were quantified using Image Lab. […]

LspMrs R110K = target: T5, LspMrs R110K (Staphylococcus aureus, UniProt Q6GHN9, R110K); test: Gel-shift peptidase assay, LspMrs R110K mutant; format: biochemical, methicillin-resistant Staphylococcus aureus
T5 construct: MGSS-hexahistidine-SSGR-TEV site (ENLYFQ) (N, cleaved yes); made in house; host or cells: E. coli C43 (DE3)
Method: as §1, §2, §3

**Q.** Which results are given for CCCCCC[C@H]1OC(=O)CNC(=O)[C@H]([C@H](C)O)NC(=O)[C@H](CO)NC(=O)[C@H]([C@H](C)CC)NC(=O)[C@H](CC(C)C)N(C)C(=O)[C@@H]1C [globomycin]?
**A.** inhibition type (LspA from E. coli): non-competitive; IC50 (LspMrs N52Q): 2430 ± 340 nM; IC50 (LspMrs G54A): 1780 ± 250 nM; IC50 (LspMrs N52A): 1230 ± 590 nM; IC50 [1]: 171000 nM; IC50 (LspMrs R110K): 1730 ± 100 nM

**Q.** Which results are given for CCCC1OC(=O)C(C)CC(C)CCCCC(=O)CCCC(CC)C=CC=C(COC)CCC(O)C(O)CC(O)CNC1=O (stereo not shown) [myxovirescin, myxovirescin A1]?
**A.** IC50 (LspMrs N52Q): 290 ± 80 nM; IC50 (LspMrs G54A): 570 ± 10 nM; IC50 [1]: 160 nM; IC50 (LspMrs R110K): 400 ± 30 nM
